Consider 37 compounds from ChEMBL document CHEMBL5226288, “A perspective on medicinal chemistry approaches towards adenomatous polyposis coli and Wnt signal based colorectal cancer inhibitors” (Eur J Med Chem, 2021).

Non-standard residues stand in square brackets, D forms with d. Residues, ends and D or L forms follow the SMILES beside them. *: point of attachment. Ala(cPent) = N[C@@H](CC1CCCC1)C(=O)O; Cbz = O=C(OCc1ccccc1)*

The nature of test [1]: Inhibition of Wnt/beta-catenin signaling pathway in mouse L Wnt-3A cells harbouring STF-reporter gene assessed as assessed as reduction in luciferase activity incubated for 24 hrs by luciferase reporter assay. The test is classed as cell-based. For orientation: A reporter such as luciferase makes a cellular process visible.
Test [2] relates to SW480. Briefly: Anticancer activity against human SW480 cells assessed as reduction in cell viability. The format is functional, cell-based.
Test [3] has as its system HCT-116. Briefly: Antiproliferative activity against human HCT-116 cells assessed as reduction in cell proliferation incubated for 72 hrs by MTS assay. The test is classed as functional, cell-based. The settings on record: HCT-116, 72 h. (In general: Formazan colour is commonly taken as a measure of viable cells.)
Test [4] deals with DLD-1. The test can be described thus: Anticancer activity against human DLD-1 cells assessed as reduction in cell viability incubated for 24 hrs by Cell Titer-Glo assay. The test is classed as functional, cell-based. The note with it: DLD-1, 24 h. On the technique in general: ATP-based viability assays read luminescence as a measure of living cells.
In test [5] the test system is HCT-116. The test can be described thus: Anticancer activity against human HCT-116 cells assessed as reduction in cell viability incubated for 24 hrs by Cell Titer-Glo assay. The format is functional, cell-based. The note with it: HCT-116, 24 h.
Test [6] concerns HCT-116. Briefly: Anticancer activity against human HCT-116 cells assessed as reduction in cell viability. The test is classed as functional, cell-based.
Test [7] deals with 3-beta-hydroxysteroid-Delta(8),Delta(7)-isomerase (Homo sapiens, UniProt Q15125). The test can be described thus: Inhibition of EBP (unknown origin).
Sequence of 3-beta-hydroxysteroid-Delta(8),Delta(7)-isomerase (Q15125 whole entry): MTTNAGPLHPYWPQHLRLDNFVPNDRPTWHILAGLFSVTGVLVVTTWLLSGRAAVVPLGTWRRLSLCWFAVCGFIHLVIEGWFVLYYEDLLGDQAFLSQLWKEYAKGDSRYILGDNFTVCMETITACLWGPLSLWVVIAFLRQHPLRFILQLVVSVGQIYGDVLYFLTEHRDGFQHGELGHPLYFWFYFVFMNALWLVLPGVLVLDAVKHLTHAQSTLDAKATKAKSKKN
Test [8] deals with T1, 7-dehydrocholesterol reductase (Homo sapiens, UniProt Q9UBM7).
T1 sequence (Q9UBM7 whole entry): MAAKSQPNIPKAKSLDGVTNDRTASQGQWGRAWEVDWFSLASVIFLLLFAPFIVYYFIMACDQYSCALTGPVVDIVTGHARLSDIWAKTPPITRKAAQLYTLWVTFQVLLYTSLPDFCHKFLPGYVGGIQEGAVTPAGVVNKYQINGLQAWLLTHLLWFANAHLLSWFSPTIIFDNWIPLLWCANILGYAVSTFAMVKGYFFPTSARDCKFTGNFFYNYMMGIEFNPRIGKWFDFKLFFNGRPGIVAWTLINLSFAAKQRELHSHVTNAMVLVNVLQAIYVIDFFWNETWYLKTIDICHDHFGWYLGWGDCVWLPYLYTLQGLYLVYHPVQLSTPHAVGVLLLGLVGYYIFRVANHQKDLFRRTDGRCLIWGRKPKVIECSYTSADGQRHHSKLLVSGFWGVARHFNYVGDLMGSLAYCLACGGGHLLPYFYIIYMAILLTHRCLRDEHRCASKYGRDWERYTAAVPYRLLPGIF
The test can be described thus: Inhibition of DHCR7 (unknown origin).

Test [9] relates to DLD-1. Briefly: Anticancer activity against human DLD-1 cells assessed as cell growth inhibition by SRB assay. The test is classed as functional, cell-based.
Test [10] has as its system SW480. Briefly: Anticancer activity against human SW480 cells assessed as cell growth inhibition by SRB assay. The test is classed as functional, cell-based.
The next test deals with DNA polymerase beta (Homo sapiens, UniProt P06746). Briefly: Inhibition of human DNA polymerase beta using 32P-labeled 63-mer F-DNA substrate preincubated for 5 mins followed by substrate addition and measured after 45 mins by autoradiography.
The target in test [11] is T2, Adenomatous polyposis coli protein (Homo sapiens, UniProt P25054). Briefly: Inhibition of APC (303 to 739 residues) (unknown origin) preincubated for 60 mins followed by substrate addition and measured after 60 mins using Ac-GGGGEQLAINELISDGK-FITC as substrate by fluorescence polarization assay.
T2 sequence (P25054 whole entry, the tested form may be a part): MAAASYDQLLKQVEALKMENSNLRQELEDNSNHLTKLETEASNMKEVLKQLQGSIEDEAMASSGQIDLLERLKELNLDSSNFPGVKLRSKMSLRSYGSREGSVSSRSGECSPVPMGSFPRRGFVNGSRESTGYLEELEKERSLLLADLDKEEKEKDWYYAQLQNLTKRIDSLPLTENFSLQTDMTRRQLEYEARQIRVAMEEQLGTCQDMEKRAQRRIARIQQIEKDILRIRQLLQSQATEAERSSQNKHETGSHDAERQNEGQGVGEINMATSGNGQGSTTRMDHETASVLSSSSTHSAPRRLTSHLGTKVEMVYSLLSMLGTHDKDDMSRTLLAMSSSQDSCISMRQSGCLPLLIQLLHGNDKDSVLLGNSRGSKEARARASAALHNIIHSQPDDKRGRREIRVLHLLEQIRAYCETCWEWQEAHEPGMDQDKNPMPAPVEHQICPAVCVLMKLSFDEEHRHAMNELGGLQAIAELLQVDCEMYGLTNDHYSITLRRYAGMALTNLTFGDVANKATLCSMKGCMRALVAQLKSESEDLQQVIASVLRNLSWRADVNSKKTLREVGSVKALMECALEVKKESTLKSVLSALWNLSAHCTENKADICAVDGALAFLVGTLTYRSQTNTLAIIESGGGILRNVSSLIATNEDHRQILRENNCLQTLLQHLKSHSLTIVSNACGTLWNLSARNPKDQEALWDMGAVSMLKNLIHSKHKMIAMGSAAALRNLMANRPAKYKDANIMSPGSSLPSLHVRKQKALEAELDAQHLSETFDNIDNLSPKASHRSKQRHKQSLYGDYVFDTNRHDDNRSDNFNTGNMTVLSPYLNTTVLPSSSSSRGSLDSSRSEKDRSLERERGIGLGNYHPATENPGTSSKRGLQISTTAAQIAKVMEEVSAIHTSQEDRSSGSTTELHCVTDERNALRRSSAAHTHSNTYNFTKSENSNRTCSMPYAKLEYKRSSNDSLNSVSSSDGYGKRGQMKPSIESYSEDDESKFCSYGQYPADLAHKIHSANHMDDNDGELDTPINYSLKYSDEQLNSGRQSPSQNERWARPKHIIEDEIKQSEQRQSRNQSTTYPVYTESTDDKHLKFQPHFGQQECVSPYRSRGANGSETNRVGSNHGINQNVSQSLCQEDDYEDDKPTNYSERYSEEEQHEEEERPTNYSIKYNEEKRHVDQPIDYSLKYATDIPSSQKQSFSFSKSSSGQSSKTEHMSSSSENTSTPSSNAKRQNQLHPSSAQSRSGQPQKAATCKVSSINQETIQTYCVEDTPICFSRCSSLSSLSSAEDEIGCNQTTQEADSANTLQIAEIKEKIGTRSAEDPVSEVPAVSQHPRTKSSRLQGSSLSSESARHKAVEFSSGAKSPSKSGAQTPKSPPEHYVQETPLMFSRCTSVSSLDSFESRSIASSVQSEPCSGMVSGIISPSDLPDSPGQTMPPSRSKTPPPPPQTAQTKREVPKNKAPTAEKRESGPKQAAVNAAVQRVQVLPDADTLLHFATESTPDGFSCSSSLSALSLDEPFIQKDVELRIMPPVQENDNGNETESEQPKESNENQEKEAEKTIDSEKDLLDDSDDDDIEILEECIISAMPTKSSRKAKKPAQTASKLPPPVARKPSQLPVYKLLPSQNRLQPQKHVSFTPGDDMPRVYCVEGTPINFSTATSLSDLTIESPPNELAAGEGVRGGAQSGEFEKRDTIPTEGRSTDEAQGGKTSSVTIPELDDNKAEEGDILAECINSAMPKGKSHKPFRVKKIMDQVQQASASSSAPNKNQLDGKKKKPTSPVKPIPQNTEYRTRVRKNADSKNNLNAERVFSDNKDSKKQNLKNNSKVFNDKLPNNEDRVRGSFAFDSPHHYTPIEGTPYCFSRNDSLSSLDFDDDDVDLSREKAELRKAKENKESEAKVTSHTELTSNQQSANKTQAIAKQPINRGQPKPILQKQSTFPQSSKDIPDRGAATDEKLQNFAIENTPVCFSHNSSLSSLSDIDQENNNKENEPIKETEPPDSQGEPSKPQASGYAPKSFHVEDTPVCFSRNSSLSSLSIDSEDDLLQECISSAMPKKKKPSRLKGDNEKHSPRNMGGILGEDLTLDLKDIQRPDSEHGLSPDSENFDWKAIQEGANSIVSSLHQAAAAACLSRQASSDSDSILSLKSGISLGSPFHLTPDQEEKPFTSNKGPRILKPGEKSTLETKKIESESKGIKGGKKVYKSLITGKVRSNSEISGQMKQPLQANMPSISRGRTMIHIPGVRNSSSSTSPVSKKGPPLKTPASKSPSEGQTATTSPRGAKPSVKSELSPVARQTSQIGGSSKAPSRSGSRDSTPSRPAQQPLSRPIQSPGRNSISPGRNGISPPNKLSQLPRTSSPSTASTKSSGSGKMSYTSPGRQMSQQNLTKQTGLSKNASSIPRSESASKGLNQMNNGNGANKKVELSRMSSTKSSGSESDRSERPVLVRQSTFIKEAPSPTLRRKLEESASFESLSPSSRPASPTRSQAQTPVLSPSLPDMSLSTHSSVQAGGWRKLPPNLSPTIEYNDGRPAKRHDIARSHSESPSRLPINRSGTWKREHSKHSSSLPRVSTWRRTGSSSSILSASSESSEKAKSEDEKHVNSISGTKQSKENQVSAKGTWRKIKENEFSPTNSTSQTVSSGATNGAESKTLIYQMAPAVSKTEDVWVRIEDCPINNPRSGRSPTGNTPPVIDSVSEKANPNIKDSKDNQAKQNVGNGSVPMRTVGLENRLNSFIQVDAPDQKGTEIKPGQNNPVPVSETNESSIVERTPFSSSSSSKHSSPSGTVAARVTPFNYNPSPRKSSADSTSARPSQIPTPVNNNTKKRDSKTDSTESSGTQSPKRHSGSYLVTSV
Test [12] concerns the target T2, Adenomatous polyposis coli protein. Briefly: Inhibition of APC (303 to 739 residues) (unknown origin) assessed as inhibition constant preincubated for 60 mins followed by substrate addition and measured after 60 mins using Ac-GGGGEQLAINELISDGK-FITC as substrate by fluorescence polarization assay.

Consider `COc1ccc(-n2nc(C(=O)NCC(=O)Nc3nc4ccc(OC)cc4s3)c3ccccc3c2=O)cc1`, for which the IC50 – broadly, the concentration that inhibits the measured activity by half – in test [1] came out at 58 nM.
As for `O=C1Nc2ccccc2C12OCC1(CO2)COC2(OC1)C(=O)Nc1ccccc12` (configuration not stated), the IC50 with SW480 [2] is 690 nM.
Consider `CCCC(=O)c1cc2c(c(O)c1C)C(=O)C(=O)c1c(O)cccc1-2`, for which the IC50 in the test on HCT-116 [3] is 780 nM.
In the case of `N#CC(=C(/N)Sc1ccccc1N)/C(C#N)=C(\N)Sc1ccccc1N`, the half-maximal inhibitory concentration (IC50) in the test on DLD-1 [4] came out at 1140 nM; in the test with HCT-116 [5], 940 nM.
`CN1CCN(S(=O)(=O)c2ccc(N3CCCC3=O)cc2)c2ccccc21`: the IC50 with SW480 [2] is 15 nM; with HCT-116 [6], 8 nM.
As to `Cc1cc(C)c(S(=O)(=O)N2CCC(N3CCCCCC3)CC2)c(C)c1`, the IC50 in test [7] stood at 9.36 nM; in [8], 1390 nM.
Take `COC(=O)c1cccc(NS(=O)(=O)c2ccc(C)cc2)c1`: in the test on HCT-116 [6], the IC50 was 580 nM.
`COc1c(C[C@@H](C)OC(=O)c2c(C)cc(O)cc2O)c2c3c(C[C@@H](C)OC(=O)c4c(C)cc(O)cc4O)c(OC)c(=O)c4c(O)cc(OC)c(c5c(OC)cc(O)c(c1=O)c52)c43`: the IC50 with HCT-116 [3] came to 3600 nM.
`CCOC(=O)C[C@H](NC(=O)[C@H](Cc1c[nH]c2ccccc12)NC(=O)Cc1cc2cc(C)ccc2[nH]1)C(=O)N[C@@H](CCC(=O)O)C(=O)OC`: the IC50 with SW480 [2] came to 10800 nM; with HCT-116 [6], 28800 nM.
For `Cc1cc(C(=O)N/N=C\c2ccccc2O)c2cc(Br)ccc2n1`, the IC50 in the test with DLD-1 [9] was 1000 nM; in the test on SW480 [10], 600 nM.
Turning to `Cc1cc(SC(=O)O)c(S(=O)(=O)Nc2n[nH]c(Nc3ccccc3)n2)cc1C`, the IC50 against DNA polymerase beta is below 50000 nM.
On to `Cc1cc(C)c(S(=O)(=O)N2CCC(N3CN4CCC3CC4)CC2)c(C)c1`, for which the figures for the IC50 in test [7] and in [8] were 188 nM and 2040 nM, respectively.
In the case of `Cc1cc(C)c(S(=O)(=O)Nc2n[nH]c(Nc3ccccc3)n2)cc1C`, the IC50 against DNA polymerase beta was below 50000 nM.
Still for that read-out and setting: the same measure for `Cc1cc(C)c(S(=O)(=O)Nc2n[nH]c(Nc3ccc4ccccc4c3)n2)cc1C`: below 50000 nM.
For the compound `NC1=NC(=O)N(C2CC(O)C(COP(=O)(O)O)O2)C(I)C1` (configuration not stated), in the test on HCT-116 [6], the IC50 is below 50000 nM.
With `CC/C(=N/NC(=O)c1ccnc(NCCN2CCOCC2)c1)c1ccc(C)cc1O`, the IC50 with DLD-1 [9] turned out to be 500 nM; in the test on SW480 [10] it was 900 nM.
As for `Cc1ccc(-n2nc(C(=O)NCC(=O)Nc3nc4ccc(C)cc4s3)c3c(c2=O)SCC3)cc1`, the IC50 in [1] was 25 nM.
On to `Cc1ccc2nc(NC(=O)CNC(=O)c3nn(-c4ccccc4)c(=O)c4c3CCS4)sc2c1`, for which the IC50 in test [1] turned out to be 27 nM.
With `COc1cccc(Nc2nc(NS(=O)(=O)c3cc(C)c(C)cc3C)n[nH]2)c1`, the IC50 against DNA polymerase beta is below 50000 nM.
For the compound `COc1ccccc1-n1nc(C(=O)NCC(=O)Nc2nc3ccc(C)cc3s2)c2c(c1=O)SCC2`, the IC50 in test [1] was 40 nM.
As for `Cc1ccc(-c2ccc(S(=O)(=O)N3CCC(N4CCC(C)CC4)CC3)cc2)cc1`, the IC50 is 49 nM in test [7] and 0.1 nM in [8].
For the compound `COC(=O)c1c(C)cc2c(c1O)[C@]1(O)C(=O)c3cc4c(c(O)c3C(=O)[C@]1(OC)[C@H](O)C2)C(=O)C=C(N[C@H]1O[C@@H](C)[C@H](OC)[C@@H](O)[C@H]1OC)C4=O`, the IC50 with HCT-116 [3] was below 150 nM.
Regarding `CC1CCN(C2CCN(S(=O)(=O)c3ccc(OC(C)C)cc3)CC2)CC1`, the IC50 in test [7] is below 1000 nM; in test [8], 30 nM.
As to `Cc1cc(C)c(S(=O)(=O)N2CCC([N+]3(C)CCCC3)CC2)c(C)c1`, the IC50 stood at 303 nM in test [7] and 50000 nM in [8].
Consider `Cc1cc(C)c(S(=O)(=O)N2CCC(NCc3ccccc3)CC2)c(C)c1`, for which the IC50 is 2.95 nM in test [7] and 1070 nM in test [8].
`CC/C(=N/NC(=O)c1ccccc1)c1cc(C)cc(C)c1O`: the IC50 was determined as 900 nM with DLD-1 [9] and 1700 nM with SW480 [10].
Take `Cn1ncnc2c(=O)n(C)c(=O)nc1-2`: the IC50 in the test on HCT-116 [3] came out at 2860 nM.
With `CC(C)C[C@H](NC(=O)[C@H](C)NC(=O)[C@H](CCC(=O)O)NC(=O)CNC(=O)[C@H](C)NC(=O)OCc1ccccc1)C(=O)N[C@@H](Cc1ccc(O)cc1)C(=O)N[C@@H](CCC(=O)O)C(=O)O` (Cbz-AGEALYE-OH), in [11], the midpoint of inhibition, the IC50, lay at 1090 nM. Besides, in [12], the Ki – broadly, a dissociation constant, usually derived from enzyme kinetics or from competition with a known ligand – was determined as 120 nM.
`C[C@H](NC(=O)OCc1ccccc1)C(=O)NCC(=O)N[C@@H](CCC(=O)O)C(=O)N[C@@H](C)C(=O)N[C@@H](CC1CCCC1)C(=O)N[C@@H](Cc1ccc(O)cc1)C(=O)N[C@@H](CCC(=O)O)C(=O)O` (Cbz-AGEA[Ala(cPent)]YE-OH) yielded an IC50 in test [11] of 570 nM. Moreover, in test [12], the Ki is 15 nM.
For `COc1c(C[C@@H](C)OC(=O)Oc2ccc(O)cc2)c2c3c(C[C@@H](C)OC(=O)c4ccccc4)c(OC)c(=O)c4c(O)cc(OC)c(c5c(OC)cc(O)c(c1=O)c52)c43` [CALPHOSTIN C], the IC50 with HCT-116 [3] amounted to 2860 nM.
In the case of `Cn1cnc2c(F)c(Nc3ccc(Br)cc3Cl)c(C(=O)NOCCO)cc21` [SELUMETINIB], the IC50 in the test on DLD-1 [4] was determined as 1250 nM; in the test with HCT-116 [5] it was 950 nM.
As for `Cn1nnc2c(C(N)=O)ncn2c1=O` [TEMOZOLOMIDE], the IC50 in the test on HCT-116 [6] was below 50000 nM.
For `CC(=O)Nc1cccc(-n2c(=O)n(C3CC3)c(=O)c3c(Nc4ccc(I)cc4F)n(C)c(=O)c(C)c32)c1` [TRAMETINIB], the IC50 in the test with DLD-1 [4] was 1340 nM; with HCT-116 [5] it was 1160 nM.
As to Ac-AGEALAD-OH, the midpoint of inhibition in test [11], the IC50, lay at 7970 nM. Besides, the Ki in [12] was determined as 2410 nM.
The like results for Ac-GGEALAD-OH were, in that order, 12200 nM and 3800 nM.
In test [11], Ac-GGEALAW-OH registered an IC50 of 10100 nM. Moreover, in test [12], the inhibitory constant (Ki) stood at 3120 nM.
The like results for H-GGEQLAI-OH were, in that order, 135000 nM and 44600 nM.
